The target of one assay is Acetylcholinesterase (Electrophorus electricus, UniProt O42275). Put plainly: Inhibition of electric eel AChE using acetylthiocholine as substrate preincubated for 8 mins followed by substrate addition by Ellman's method. In general terms: DTNB colorimetry detects thiols as they appear.
Another assay has as its target Cholinesterase (Equus caballus, UniProt P81908). Put plainly: Inhibition of equine serum BuChE using butyrylthiocholine as substrate preincubated for 8 mins followed by substrate addition by Ellman's method.
Assay [1] concerns the target T1, Muscarinic acetylcholine receptor M1 (Rattus norvegicus) (UniProt P08482).
T1 sequence (whole entry): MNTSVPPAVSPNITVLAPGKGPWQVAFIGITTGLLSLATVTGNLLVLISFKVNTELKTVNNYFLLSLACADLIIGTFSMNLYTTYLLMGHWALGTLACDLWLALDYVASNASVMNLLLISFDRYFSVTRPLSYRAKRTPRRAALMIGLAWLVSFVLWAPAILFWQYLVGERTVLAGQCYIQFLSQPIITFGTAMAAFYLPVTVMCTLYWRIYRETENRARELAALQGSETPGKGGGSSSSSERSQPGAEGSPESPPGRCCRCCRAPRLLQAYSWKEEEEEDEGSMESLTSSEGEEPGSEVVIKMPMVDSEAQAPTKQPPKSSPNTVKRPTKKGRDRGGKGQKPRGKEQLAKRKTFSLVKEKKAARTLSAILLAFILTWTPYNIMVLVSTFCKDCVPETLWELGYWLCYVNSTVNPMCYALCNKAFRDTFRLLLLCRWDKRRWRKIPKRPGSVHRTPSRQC
Kind of assay: Displacement of [3H]QNB from muscarinic M1 receptor in rat brain homogenates at 1 uM after 60 mins relative to control. The assay is classed as tissue-based. A general note: Loss of bound radioactivity is the signal in a displacement assay; it reports binding, not function.

For assay [2], the target named is T2, Muscarinic acetylcholine receptor M2 (Rattus norvegicus) (UniProt P10980).
T2 sequence (whole entry): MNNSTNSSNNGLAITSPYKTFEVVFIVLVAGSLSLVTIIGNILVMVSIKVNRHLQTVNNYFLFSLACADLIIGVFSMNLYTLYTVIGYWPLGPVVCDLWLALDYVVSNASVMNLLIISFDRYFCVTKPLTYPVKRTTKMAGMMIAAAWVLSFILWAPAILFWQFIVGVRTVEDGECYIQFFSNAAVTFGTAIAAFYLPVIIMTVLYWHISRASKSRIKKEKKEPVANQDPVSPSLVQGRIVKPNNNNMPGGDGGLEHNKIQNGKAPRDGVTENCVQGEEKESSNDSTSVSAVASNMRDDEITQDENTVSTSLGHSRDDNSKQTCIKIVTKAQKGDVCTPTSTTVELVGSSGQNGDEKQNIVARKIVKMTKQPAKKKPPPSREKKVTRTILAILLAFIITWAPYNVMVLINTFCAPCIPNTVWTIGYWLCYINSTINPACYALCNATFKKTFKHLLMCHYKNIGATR
Kind of assay: Displacement of [3H]QNB from muscarinic M2 receptor in rat brain homogenates at 1 uM after 60 mins relative to control. The assay is classed as tissue-based.

In assay [3] the target is Muscarinic acetylcholine receptor M3 (Rattus norvegicus) (UniProt P08483). Put plainly: Displacement of [3H]QNB from muscarinic M3 receptor in rat brain homogenates at 1 uM after 60 mins relative to control. The assay is classed as tissue-based.
Muscarinic acetylcholine receptor M3 (Rattus norvegicus), sequence (P08483 whole entry, looked up): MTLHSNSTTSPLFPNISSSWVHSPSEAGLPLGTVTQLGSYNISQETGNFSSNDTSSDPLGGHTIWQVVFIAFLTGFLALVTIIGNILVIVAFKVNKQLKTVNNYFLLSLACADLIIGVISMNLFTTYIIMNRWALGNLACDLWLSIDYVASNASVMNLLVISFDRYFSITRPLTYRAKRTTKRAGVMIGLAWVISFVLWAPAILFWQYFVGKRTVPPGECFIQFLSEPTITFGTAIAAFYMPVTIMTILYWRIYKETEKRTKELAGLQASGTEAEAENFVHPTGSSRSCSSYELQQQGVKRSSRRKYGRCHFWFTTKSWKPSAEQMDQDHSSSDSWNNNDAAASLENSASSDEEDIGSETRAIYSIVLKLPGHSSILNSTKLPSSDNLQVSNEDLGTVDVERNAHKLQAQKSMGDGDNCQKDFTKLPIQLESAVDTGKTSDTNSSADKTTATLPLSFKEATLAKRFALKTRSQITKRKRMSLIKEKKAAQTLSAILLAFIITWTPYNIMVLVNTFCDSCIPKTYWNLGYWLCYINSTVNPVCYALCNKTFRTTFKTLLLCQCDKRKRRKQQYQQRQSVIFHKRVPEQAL
The target in assay [4] is T3, Muscarinic acetylcholine receptor M4 (Rattus norvegicus) (UniProt P08485).
T3 sequence (whole entry): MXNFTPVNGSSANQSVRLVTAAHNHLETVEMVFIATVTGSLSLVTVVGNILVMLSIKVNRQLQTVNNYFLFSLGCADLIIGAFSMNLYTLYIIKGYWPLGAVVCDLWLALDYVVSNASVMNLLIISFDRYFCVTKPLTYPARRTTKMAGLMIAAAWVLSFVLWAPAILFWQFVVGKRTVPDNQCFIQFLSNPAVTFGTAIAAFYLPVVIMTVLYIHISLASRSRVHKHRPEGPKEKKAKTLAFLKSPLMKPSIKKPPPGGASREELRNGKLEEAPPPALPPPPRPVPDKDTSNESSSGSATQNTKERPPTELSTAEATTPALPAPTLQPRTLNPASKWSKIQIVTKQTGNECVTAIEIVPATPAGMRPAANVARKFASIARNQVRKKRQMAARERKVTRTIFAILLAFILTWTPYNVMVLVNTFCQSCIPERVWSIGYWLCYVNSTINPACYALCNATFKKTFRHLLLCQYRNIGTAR
Put plainly: Displacement of [3H]QNB from muscarinic M4 receptor in rat brain homogenates at 1 uM after 60 mins relative to control. It is filed as tissue-based.

A value given as a limit tells only on which side of the number the result lay.

Acetylcholinesterase, sequence (O42275 whole entry): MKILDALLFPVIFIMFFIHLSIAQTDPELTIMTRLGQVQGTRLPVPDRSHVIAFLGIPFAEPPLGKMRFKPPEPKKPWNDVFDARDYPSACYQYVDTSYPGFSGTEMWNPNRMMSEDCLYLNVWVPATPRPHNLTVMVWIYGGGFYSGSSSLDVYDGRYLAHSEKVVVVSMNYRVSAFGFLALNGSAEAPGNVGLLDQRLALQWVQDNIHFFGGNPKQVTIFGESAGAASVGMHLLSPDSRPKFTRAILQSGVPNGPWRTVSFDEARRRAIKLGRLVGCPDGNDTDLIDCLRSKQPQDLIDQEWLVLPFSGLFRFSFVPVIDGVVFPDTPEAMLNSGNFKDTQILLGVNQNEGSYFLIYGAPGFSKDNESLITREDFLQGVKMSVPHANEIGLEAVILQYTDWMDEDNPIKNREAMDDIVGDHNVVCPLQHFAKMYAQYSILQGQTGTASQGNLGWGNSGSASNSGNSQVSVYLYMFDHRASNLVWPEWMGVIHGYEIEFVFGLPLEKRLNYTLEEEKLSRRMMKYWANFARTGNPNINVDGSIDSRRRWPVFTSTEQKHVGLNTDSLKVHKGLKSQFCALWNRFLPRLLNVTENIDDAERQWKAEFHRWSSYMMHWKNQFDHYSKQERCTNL
Cholinesterase, sequence (P81908 whole entry): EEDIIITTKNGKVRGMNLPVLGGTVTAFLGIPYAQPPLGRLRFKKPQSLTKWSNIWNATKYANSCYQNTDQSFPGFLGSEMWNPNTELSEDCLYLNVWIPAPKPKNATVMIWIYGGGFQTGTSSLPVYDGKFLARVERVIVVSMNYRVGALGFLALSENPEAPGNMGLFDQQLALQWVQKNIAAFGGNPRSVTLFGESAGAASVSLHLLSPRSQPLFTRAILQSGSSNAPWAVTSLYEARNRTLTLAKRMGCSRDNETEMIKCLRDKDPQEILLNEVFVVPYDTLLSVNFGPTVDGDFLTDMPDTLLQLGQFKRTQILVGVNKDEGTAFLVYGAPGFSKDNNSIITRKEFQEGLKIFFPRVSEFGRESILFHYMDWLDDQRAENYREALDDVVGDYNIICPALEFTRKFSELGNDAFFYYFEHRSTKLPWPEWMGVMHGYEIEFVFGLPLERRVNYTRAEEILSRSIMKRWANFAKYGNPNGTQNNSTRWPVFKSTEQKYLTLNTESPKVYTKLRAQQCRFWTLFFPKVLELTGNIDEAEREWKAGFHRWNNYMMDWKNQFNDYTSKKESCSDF

As a reminder, the IC50 is the concentration that inhibits the measured activity by half. Higher therefore signals weaker potency. By inhibition is commonly meant the relative decrease from the control value, in per cent. Lower therefore signals a weak effect. In the case of `CN(C)Cc1ccc(CSCCNc2nnc(-c3ccccc3)cc2[N+](=O)[O-])o1`, the values for the IC50 against Acetylcholinesterase and at Cholinesterase were 0.26 µM and 4.46 µM, respectively. Further, the inhibition was 40% in assay [1], 34% in assay [2], 38% in assay [3] and 16% in assay [4].
On to `CN(C)Cc1ccc(CSCCNc2ccc(Cl)nn2)o1`, for which the values for the IC50 against Acetylcholinesterase and against Cholinesterase were 10.4 µM and more than 50 µM, respectively. Besides, the inhibition stood at 25.2% in assay [1], 9.8% in assay [2], 2.3% in assay [3] and 7.7% in assay [4].
Consider `Cc1cccc(Nc2ccccc2C(=O)NCCSCc2ccc(CN(C)C)o2)c1C`, for which the IC50 against Acetylcholinesterase and against Cholinesterase was more than 50 µM each time. Also, the inhibition in assay [1] is 77.4%; in assay [2], 50.8%; in assay [3], 69.6%; in assay [4], 33.8%.
In the case of `CN(C)Cc1ccc(CSCCN/C(=C/[N+](=O)[O-])N2CCCCC2)o1`, the figures for the IC50 on Acetylcholinesterase and at Cholinesterase were 4.04 µM and 21.2 µM, respectively. The inhibition stood at 72.1% in assay [1], 54% in assay [2], 41.5% in assay [3] and 47.7% in assay [4].
Consider `CN(C)Cc1ccc(CSCCNC(=O)c2ccccc2-c2ccccc2C(=O)O)o1`, for which the IC50 against Acetylcholinesterase and on Cholinesterase was more than 50 µM in each case.
Consider `CN(C)Cc1ccc(CSCCN2C(=O)c3ccc([N+](=O)[O-])cc3C2=O)o1`, for which the concentration for half-maximal inhibition (IC50) against Acetylcholinesterase was 46 µM; at Cholinesterase, more than 50 µM.
Regarding `CN(C)Cc1ccc(CSCCNc2nncc(-c3ccccc3)c2[N+](=O)[O-])o1`, the half-inhibitory concentration (IC50) against Acetylcholinesterase was determined as 0.46 µM; against Cholinesterase, 22.7 µM. In addition, the inhibition in assay [1] was 40%; in assay [2], 37%; in assay [3] it was 27%; in assay [4], 18%.
Take `Cc1ccc(S(=O)(=O)NCCSCc2ccc(CN(C)C)o2)cc1`: the results for the 50% inhibitory concentration (IC50) against Acetylcholinesterase and at Cholinesterase were more than 50 µM and 47.2 µM, respectively.
As to `CN(C)Cc1ccc(CSCCNc2ncccn2)o1`, the values for the IC50 on Acetylcholinesterase and against Cholinesterase were 16.2 µM and 7.65 µM, respectively. For the same compound, the inhibition in assay [1] is 56.2%; in assay [2] it was 50.8%; in assay [3], 24.3%; in assay [4] it was 24.9%.
With `CS/C(=N\S(=O)(=O)c1ccc(C)cc1)NCCSCc1ccc(CN(C)C)o1`, the IC50 at Acetylcholinesterase and at Cholinesterase was more than 50 µM each time. Also, the inhibition in assay [1] turned out to be 37.5%; in assay [3], 18.5%; in assay [4], 4.2%.
As for `CN(C)Cc1ccc(CSCCNc2nnccc2[N+](=O)[O-])o1`, the IC50 on Acetylcholinesterase stood at 0.47 µM. The inhibition was 80% in assay [1], 97% in assay [2], 32% in assay [3] and 74% in assay [4].
For the compound `CCc1nnc(NCCSCc2ccc(CN(C)C)o2)c([N+](=O)[O-])c1CC`, the IC50 is 2.54 µM on Acetylcholinesterase and 18.8 µM at Cholinesterase.
Consider `CN(C)Cc1ccc(CSCCNc2ncccc2C#N)o1`, for which the figures for the IC50 at Acetylcholinesterase and against Cholinesterase were 5.34 µM and 8.36 µM, respectively.
On to `Cc1cc([N+](=O)[O-])c(NCCSCc2ccc(CN(C)C)o2)nn1`, for which the figures for the IC50 against Acetylcholinesterase and at Cholinesterase were 0.68 µM and 28.4 µM, respectively. The inhibition amounted to 79% in assay [1], 78% in assay [2], 46% in assay [3] and 57% in assay [4].
In the case of `CN(C)Cc1ccc(CSCCN2C(=O)CCC2=O)o1`, the IC50 on Acetylcholinesterase was 11.8 µM; at Cholinesterase it was more than 50 µM.
Turning to `CN(C)Cc1ccc(CSCCNc2nc(N)no2)o1`, the half-inhibitory concentration (IC50) at Acetylcholinesterase and against Cholinesterase was more than 50 µM each time. Moreover, the inhibition in assay [1] amounted to 69.9%; in assay [2], 72.8%; in assay [3], 49.8%; in assay [4], 42.7%.
Take `Cc1nnc(NCCSCc2ccc(CN(C)C)o2)c([N+](=O)[O-])c1C`: the IC50 against Acetylcholinesterase turned out to be 2.72 µM. Moreover, the inhibition in assay [1] worked out at 74%; in assay [2], 63%; in assay [3] it was 48%; in assay [4] it was 67%.
In the case of `CN(C)Cc1ccc(CSCCNc2nnc(-c3cccs3)c(-c3cccs3)c2[N+](=O)[O-])o1`, the IC50 at Acetylcholinesterase is 0.35 µM; against Cholinesterase, 2.28 µM.
Regarding `Cc1c(-c2ccccc2)nnc(NCCSCc2ccc(CN(C)C)o2)c1[N+](=O)[O-]`, the IC50 was determined as 0.16 µM against Acetylcholinesterase and 3.71 µM against Cholinesterase. Further, the inhibition was 84% in assay [1], 72% in assay [2], 63% in assay [3] and 58% in assay [4].
In the case of `CN(C)Cc1ccc(CSCCN2C(=O)c3cccc4cccc(c34)C2=O)o1`, the IC50 against Acetylcholinesterase is 1.27 µM; on Cholinesterase, 7.21 µM.
Turning to `CN(C)Cc1ccc(CSCCN2C(=O)c3ccccc3C2=O)o1`, the IC50 against Acetylcholinesterase was 3.57 µM; against Cholinesterase, 14.5 µM.
As to `Cc1nnc(NCCSCc2ccc(CN(C)C)o2)c([N+](=O)[O-])c1-c1ccccc1`, the midpoint of inhibition on Acetylcholinesterase, the IC50, lay at 0.72 µM. The inhibition in assay [1] turned out to be 60%; in assay [2] it was 40%; in assay [3], 52%; in assay [4] it was 37%.
`CC1CC(=O)N(CCSCc2ccc(CN(C)C)o2)C1=O` (stereo not given): the IC50 against Acetylcholinesterase was 33.4 µM; on Cholinesterase, more than 50 µM.
In the case of `CN(C)Cc1ccc(CSCCN/C(=C/[N+](=O)[O-])N/N=C/c2ccccc2)o1`, the IC50 against Acetylcholinesterase was 1.18 µM; against Cholinesterase, 2.96 µM. Besides, the inhibition in assay [1] stood at 88.5%; in assay [2] it was 67%; in assay [3] it was 66.6%; in assay [4] it was 62.3%.
As to `C=C1C(C)=NN/C(=C\[N+](=O)[O-])N1CCSCc1ccc(CN(C)C)o1`, the IC50 was found to be 1.65 µM against Acetylcholinesterase and 7.1 µM at Cholinesterase. For the same compound, the inhibition amounted to 88.8% in assay [1], 81% in assay [2], 90.4% in assay [3] and 92.1% in assay [4].
With `CN(C)Cc1ccc(CSCCNC(=O)Cc2ccccc2Nc2c(Cl)cccc2Cl)o1`, at Cholinesterase, inhibition was half-maximal at 7.65 µM (IC50). Also, the inhibition in assay [1] was 60.1%; in assay [2], 27.4%; in assay [3], 43.5%; in assay [4] it was 47.3%.
`CN(C)Cc1ccc(CSCCNc2nc(N)n[nH]2)o1`: the IC50 against Acetylcholinesterase and against Cholinesterase was more than 50 µM throughout. For the same compound, the inhibition in assay [1] was found to be 57.4%; in assay [2] it was 71.3%; in assay [3], 30.1%; in assay [4] it was 43.6%.
`CN(C)Cc1ccc(CSCCNc2nnc(-c3ccccc3)c(-c3ccccc3)c2[N+](=O)[O-])o1`: the IC50 on Acetylcholinesterase came out at 0.19 µM; on Cholinesterase, 7.05 µM. Further, the inhibition is 76% in assay [1], 51% in assay [2], 73% in assay [3] and 48% in assay [4].
Take `CN(C)Cc1ccc(CSCCN2C(=O)c3cccc4cc([N+](=O)[O-])cc(c34)C2=O)o1`: the IC50 against Acetylcholinesterase was 0.15 µM; against Cholinesterase it was 8.01 µM.

Values taken from ChEMBL document CHEMBL3862026, “Synthesis and biological evaluation of ranitidine analogs as multiple-target-directed cognitive enhancers for the treatment of Alzheimer's disease” (Bioorg Med Chem Lett, 2016).
